Test results published in US20180362485A1, “N-HYDROXYFORMAMIDE COMPOUNDS AND COMPOSITIONS COMPRISING THEM FOR USE AS BMP l, TLL1 AND/OR TLL2 INHIBITORS” (GlaxoSmithKline Intellectual Property (No. 2) Limited, priority 2015, published 2018).

Target: T1, human TLL1 (Homo sapiens, UniProt O43897, I156V/N221S/V284A)
T1 construct: a natural variant of full length native human TLL1 (NM_012464.4); made in house
T1 sequence (O43897 148-1013 I156V/N221S/V284A): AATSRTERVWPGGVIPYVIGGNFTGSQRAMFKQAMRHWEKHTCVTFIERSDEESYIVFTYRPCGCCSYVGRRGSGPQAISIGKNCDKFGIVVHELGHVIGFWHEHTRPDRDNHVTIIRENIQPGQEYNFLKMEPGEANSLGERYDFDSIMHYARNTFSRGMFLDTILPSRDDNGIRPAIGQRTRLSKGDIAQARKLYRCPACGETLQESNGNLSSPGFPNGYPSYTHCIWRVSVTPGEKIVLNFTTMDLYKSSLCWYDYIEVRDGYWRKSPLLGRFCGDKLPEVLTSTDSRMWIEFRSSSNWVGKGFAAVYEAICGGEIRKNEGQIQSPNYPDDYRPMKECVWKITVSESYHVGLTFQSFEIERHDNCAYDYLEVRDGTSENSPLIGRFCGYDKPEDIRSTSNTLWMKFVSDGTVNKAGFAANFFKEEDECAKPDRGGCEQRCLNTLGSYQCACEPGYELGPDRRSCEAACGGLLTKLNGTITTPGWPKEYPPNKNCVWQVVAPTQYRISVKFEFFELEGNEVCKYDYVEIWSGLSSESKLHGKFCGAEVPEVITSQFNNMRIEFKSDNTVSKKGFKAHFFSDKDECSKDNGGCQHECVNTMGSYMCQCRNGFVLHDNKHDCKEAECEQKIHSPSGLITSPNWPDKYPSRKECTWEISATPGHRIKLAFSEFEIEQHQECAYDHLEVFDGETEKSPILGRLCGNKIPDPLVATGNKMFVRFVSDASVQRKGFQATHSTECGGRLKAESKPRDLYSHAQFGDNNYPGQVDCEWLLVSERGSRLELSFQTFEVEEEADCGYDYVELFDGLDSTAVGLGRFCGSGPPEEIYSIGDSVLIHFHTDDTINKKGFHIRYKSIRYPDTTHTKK
Experiment: Enzyme inhibition assay for human TLL1
Type: biochemical
Conditions: 2 nM TLL1, 0.8 μM promyostatin peptide substrate; read-out: pIC50, TLL1 enzyme inhibition assay (converted)
From the text: Buffer components are purchased from Sigma-Aldrich (St. Louis, Mo.) or an equivalent supplier. The promyostatin peptide substrate is custom synthesized by American Peptide Company (Sunnyvale, Calif.) using the myostatin protein sequence (Uniprot accession number 014793) surrounding the cleavage site reviewed in Hopkins, D. R., et al., 2007 Matrix Biology, 26, 508-523. The procollagen peptide substrate used in the high enzyme BMP1 cleavage assay is custom synthesized by 21st Century Biochemicals (Marlboro, Mass.) using the procollagen Iα protein sequence (Uniprot accession number P02452) surrounding the cleavage site reviewed in Hopkins, D. R., et al., 2007 Matrix Biology, 26, 508-523.
The DNA sequence encoding a natural variant of full length native human TLL1 (NM_012464.4) containing three amino acid substitutions I156V, N221S, V284A is amplified from human heart and brain cDNA and subcloned into the pCDN expression vector. The plasmid is electroporated into CHOE1A cells. […]
Inhibition of human TLL1 and TLL2 recombinant enzymes is measured in 10 ul endpoint assays in 384-well format using the same promyostatin peptide substrate employed in the above Enzyme Inhibition Assay for human BMP1. […] TLL1 and TLL2 reactions are quenched with 5 μl of 0.5 M EDTA and plates are read on a ViewLux (Perkin Elmer) multilabel plate reader using a 480 nm excitation filter and 540 nm emission filter. […]

Structure (SMILES): CCCCC[C@@H](C(=O)NCNC(=O)c1ccc(-c2ccc(C(=O)O)cc2)o1)[C@@H](CC)N(O)C=O [WO2015/104684 Example 71, 4-(5-((((R)-2-((R)-1-(N-hydroxyformamido)propyl)heptanamido)methyl)carbamoyl)furan-2-yl)benzoic acid]
- IC50: < 398 nM
